Reference: US20220220135A1 (BAR-ILAN UNIVERSITY, priority 2019, published 2022)
Where two headings read alike, the source gives them in different places.

Tests used:
human NPP3 = biological target: T1, human NPP3 (Homo sapiens, UniProt O14638); assay: Inhibition of human NPP3, 100 μM p-Nph-5′-TMP as substrate (Tables 5, 7); assay type: biochemical; details: 100 μM p-Nph-5′-TMP as a substrate
T1 sequence (O14638 1-875): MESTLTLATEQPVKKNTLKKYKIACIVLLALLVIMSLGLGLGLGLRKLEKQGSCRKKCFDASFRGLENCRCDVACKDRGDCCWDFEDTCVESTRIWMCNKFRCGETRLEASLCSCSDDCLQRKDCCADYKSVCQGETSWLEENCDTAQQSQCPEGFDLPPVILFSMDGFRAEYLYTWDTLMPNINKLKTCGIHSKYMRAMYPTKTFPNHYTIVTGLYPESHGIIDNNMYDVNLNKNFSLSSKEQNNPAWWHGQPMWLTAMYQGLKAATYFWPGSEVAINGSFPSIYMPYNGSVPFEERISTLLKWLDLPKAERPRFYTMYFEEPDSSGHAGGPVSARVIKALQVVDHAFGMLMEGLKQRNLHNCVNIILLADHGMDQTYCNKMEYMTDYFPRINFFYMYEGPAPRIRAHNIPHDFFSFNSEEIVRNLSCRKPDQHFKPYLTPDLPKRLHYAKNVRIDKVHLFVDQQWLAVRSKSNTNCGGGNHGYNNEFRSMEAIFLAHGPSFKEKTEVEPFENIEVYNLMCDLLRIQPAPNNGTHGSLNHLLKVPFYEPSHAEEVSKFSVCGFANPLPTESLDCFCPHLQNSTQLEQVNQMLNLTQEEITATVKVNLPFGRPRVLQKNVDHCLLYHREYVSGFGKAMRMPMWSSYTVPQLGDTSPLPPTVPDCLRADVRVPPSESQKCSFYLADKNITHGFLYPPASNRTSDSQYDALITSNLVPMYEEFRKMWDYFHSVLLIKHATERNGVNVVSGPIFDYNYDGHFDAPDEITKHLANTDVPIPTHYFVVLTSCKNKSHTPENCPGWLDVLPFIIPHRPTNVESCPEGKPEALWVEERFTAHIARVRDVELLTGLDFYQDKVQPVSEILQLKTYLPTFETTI

Human CD73 = biological target: T2, Human CD73 (Homo sapiens, UniProt P21589); details: literature value; cited from earlier work
T2 sequence (P21589 27-549): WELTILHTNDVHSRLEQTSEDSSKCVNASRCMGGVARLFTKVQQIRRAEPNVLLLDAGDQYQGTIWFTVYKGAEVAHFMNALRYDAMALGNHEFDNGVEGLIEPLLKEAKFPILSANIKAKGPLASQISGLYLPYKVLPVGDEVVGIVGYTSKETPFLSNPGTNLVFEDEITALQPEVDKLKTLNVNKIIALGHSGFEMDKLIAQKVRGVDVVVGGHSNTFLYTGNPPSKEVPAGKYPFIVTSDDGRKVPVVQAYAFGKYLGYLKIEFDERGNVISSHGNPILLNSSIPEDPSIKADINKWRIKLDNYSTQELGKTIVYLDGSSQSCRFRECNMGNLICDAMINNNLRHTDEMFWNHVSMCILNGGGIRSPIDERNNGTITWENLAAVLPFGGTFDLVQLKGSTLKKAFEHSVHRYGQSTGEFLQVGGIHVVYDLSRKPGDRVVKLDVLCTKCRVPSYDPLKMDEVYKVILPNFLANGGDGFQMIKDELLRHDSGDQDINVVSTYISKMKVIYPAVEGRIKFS

Human CD39 (NTPDase1) [1] = biological target: T3, Human CD39 (NTPDase1) (Homo sapiens, UniProt P49961); assay: Inhibition of human CD39 (NTPDase1), 100 μM ADP as substrate; assay type: biochemical; details: 100 μM ADP as a substrate
T3 sequence (P49961 1-510): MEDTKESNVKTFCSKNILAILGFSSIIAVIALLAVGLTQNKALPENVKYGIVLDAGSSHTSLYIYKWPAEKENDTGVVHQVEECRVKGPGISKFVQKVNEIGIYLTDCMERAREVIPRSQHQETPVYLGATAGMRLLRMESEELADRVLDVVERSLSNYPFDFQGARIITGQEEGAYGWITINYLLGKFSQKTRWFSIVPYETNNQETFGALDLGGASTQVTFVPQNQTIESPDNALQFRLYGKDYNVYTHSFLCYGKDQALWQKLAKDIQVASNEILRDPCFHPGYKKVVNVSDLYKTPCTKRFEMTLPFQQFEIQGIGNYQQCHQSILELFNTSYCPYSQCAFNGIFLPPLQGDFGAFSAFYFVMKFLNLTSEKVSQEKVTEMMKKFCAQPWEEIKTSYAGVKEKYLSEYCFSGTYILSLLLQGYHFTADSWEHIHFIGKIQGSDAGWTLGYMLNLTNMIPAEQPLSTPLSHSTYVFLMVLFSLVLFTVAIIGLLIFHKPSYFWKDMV

NPP1 [2] = biological target: T4, NPP1 (Homo sapiens, UniProt P22413); details: literature value; cited from earlier work
T4 sequence (P22413 1-925): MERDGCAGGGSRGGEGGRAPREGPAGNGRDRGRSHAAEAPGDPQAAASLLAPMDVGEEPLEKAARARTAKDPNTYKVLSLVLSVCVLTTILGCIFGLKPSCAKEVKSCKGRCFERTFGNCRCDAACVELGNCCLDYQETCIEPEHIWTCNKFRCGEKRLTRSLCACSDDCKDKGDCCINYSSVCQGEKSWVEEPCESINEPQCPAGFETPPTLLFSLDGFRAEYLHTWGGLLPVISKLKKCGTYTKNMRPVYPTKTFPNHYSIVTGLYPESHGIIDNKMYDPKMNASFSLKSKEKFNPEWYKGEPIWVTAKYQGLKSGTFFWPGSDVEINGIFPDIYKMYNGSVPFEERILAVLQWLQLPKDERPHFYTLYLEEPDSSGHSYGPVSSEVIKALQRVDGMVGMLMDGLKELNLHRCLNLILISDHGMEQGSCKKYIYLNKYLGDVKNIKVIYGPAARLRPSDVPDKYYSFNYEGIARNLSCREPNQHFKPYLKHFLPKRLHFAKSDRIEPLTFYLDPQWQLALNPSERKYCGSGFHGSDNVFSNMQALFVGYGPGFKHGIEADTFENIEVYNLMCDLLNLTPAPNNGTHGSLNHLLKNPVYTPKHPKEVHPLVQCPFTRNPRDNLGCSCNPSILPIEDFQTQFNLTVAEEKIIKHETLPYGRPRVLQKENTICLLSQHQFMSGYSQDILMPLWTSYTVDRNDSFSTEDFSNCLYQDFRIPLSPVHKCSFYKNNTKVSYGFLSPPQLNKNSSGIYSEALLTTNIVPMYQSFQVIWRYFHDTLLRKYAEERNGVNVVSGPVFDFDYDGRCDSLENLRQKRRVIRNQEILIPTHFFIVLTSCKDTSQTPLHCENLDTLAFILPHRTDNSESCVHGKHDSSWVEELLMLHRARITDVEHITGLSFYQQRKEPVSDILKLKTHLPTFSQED

[3] = system: primary human chondrocytes; assay: Cell viability of primary human chondrocytes, XTT assay; assay type: cell-based; details: cultured primary human chondrocytes, 0.1 mM
Experimental: FIG. 11: Analogs 20-28 are not toxic to primary human chondrocytes. Chondrocytes were incubated with analogs 20-28 at the indicated concentrations for 24 h, and then cell viability was assessed by the XTT assay;
FIG. 15: The effects of analogs 106-109 on primary human chondrocytes. (A) Analogs 106-109 inhibit NPPase activity in primary chondrocytes. NPPase activity was assayed by measuring the hydrolysis of the chromogenic substrate, pnp-TMP. […] Alkaline phosphatase activity was assayed by hydrolysis of p-nitrophenyl phosphate. (C) Analogs 106-109 are not toxic to cultured chondrocytes at a concentration of 0.1 mM. Cell viability was assessed by the XTT assay. Mean (columns) and SD (error bars) of triplicate cell culture experiments are shown.
A prerequisite for the application of inhibitors 20-28 as therapeutic agents is the lack of toxicity. For this purpose, primary human chondrocytes were cultured with analogs 20-28 at a high concentration of 1 mM for 24 h. Thereafter, cell viability was measured relative to untreated controls by the XTT assay and is represented on FIG. 11. No significant decrease in cell's viability was discernible at concentrations of up to 1 mM.

NPP1 [4] = biological target: T4, NPP1; assay: Inhibition of human NPP1, 100 μM p-Nph-5′-TMP as substrate (Tables 5, 6); details: for inhibition at 10 µM: read-out: % inhibition ± SEM at 10 μM, human NPP1
NPP1 [5] = biological target: T4, NPP1; assay: Inhibition of human NPP1, 100 μM ATP as substrate (FIG. 9, Table 6); assay type: biochemical; details: for inhibition at 10 µM: n = 3, read-out: % inhibition ± SEM at 10 μM, human NPP1
Experimental: Each experiment was performed in triplicates;

Human CD39 (NTPDase1) [6] = biological target: T3, Human CD39 (NTPDase1); details: literature value; cited from earlier work
human P2Y4R = biological target: T5, human P2Y4R (Homo sapiens, UniProt P51582); assay: Calcium mobilization in 1321N1 astrocytoma cells expressing human P2Y4R; assay type: cell-based
T5 construct: expressed in transfected cells; host or cells: 1321N1 astrocytoma cells
T5 sequence (P51582 whole entry): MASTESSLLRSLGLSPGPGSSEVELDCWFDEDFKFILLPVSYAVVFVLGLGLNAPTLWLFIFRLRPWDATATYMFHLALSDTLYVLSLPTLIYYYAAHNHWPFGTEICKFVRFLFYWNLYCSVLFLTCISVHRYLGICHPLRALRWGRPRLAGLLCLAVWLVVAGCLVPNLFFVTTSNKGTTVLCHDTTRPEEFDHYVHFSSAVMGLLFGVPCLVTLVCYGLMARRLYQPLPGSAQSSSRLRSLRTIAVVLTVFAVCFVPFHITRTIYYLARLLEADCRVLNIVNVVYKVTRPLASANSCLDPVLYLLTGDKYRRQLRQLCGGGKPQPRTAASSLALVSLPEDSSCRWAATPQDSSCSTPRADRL
Experimental: (§1) Given the structural resemblance of 106-109 to the natural ligands of P2Y receptors, adenine and uracil nucleotides as natural substrates, were assessed for agonist potency on the human P2Y1, P2Y2, P2Y4, and P2Y6 receptor. To evaluate NPP1 selectivity of analogs 106-109, they were tested for their ability to activate of the uridine-nucleotide sensitive human recombinant P2Y1,2,4,6-receptors. The agonist potencies of this series of nucleotide analogues on the Gq protein-coupled human P2Y1R, P2Y2R, P2Y4R, and P2Y6R was determined by assessing its ability to induce calcium mobilization in stably transfected 1321N1 astrocytoma cells (Table 8). The nucleotide analogues were found in calcium mobilization assays to activate the P2Y2R with mid-micromolar potency.

human P2Y2R = biological target: T6, human P2Y2R (Homo sapiens, UniProt P41231); assay: Calcium mobilization in 1321N1 astrocytoma cells expressing human P2Y2R; assay type: cell-based
T6 construct: expressed in transfected cells; host or cells: 1321N1 astrocytoma cells
T6 sequence (P41231 whole entry): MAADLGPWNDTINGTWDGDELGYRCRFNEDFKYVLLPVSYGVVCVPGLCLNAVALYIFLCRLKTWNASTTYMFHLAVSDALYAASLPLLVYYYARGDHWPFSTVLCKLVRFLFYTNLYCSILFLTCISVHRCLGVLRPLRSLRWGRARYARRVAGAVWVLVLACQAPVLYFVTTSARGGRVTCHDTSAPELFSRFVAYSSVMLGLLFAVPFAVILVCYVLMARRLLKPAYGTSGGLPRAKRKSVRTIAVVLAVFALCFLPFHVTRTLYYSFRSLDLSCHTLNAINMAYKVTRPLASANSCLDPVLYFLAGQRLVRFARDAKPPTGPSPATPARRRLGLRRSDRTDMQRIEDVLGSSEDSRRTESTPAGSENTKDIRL
Experimental: as §1

human P2Y1R = biological target: T7, human P2Y1R (Homo sapiens, UniProt P47900); assay: Calcium mobilization in 1321N1 astrocytoma cells expressing human P2Y1R; assay type: cell-based
T7 construct: expressed in transfected cells; host or cells: 1321N1 astrocytoma cells
T7 sequence (P47900 whole entry): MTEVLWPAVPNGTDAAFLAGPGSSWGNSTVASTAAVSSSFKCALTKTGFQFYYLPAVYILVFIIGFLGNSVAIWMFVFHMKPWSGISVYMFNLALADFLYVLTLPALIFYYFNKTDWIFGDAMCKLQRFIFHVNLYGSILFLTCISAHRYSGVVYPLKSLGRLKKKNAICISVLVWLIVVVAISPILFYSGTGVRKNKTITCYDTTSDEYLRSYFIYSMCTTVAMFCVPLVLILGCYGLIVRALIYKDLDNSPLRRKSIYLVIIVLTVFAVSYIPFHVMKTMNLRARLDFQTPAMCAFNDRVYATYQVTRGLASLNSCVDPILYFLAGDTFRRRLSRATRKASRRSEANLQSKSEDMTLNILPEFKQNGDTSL
Experimental: as §1

P2Y6R = P2Y6R (Homo sapiens, UniProt Q15077); assay: Calcium mobilization in 1321N1 astrocytoma cells expressing human P2Y6R; assay type: cell-based; design: expressed in transfected cells; host or cells: 1321N1 astrocytoma cells (stably transfected)
Chain of P2Y6R (Q15077 whole entry): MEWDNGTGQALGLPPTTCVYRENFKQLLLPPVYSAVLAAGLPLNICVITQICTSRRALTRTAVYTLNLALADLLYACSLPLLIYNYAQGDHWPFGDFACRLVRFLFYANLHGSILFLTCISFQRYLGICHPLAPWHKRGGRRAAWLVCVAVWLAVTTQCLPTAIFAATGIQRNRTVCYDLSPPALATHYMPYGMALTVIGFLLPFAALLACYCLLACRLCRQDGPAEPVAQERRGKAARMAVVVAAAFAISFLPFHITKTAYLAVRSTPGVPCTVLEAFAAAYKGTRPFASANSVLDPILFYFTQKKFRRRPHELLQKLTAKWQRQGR
Experimental: as §1

human CD39 = biological target: T8, human CD39 (Homo sapiens, UniProt P49961); assay: Inhibition of human CD39, 0.5 μM PSB-170621A as substrate; assay type: biochemical; details: 0.5 μM PSB-170621A as a substrate; n = 3
T8 sequence (P49961 1-510): T3 sequence (P49961 1-510)

[7] = 10 μM, inactive = no inhibition at 10 μM

Row | Structure (SMILES) | cell viability (XTT), toxicity [3] | % activation at 10 μM, P2Y4 (human P2Y4R) | % activation at 10 μM, P2Y2 (human P2Y2R) | % activation at 10 μM, P2Y1 (human P2Y1R) | Ki (NPP1 [4]) | inhibition at 10 µM (NPP1 [4]) | % activation at 10 μM, P2Y6 (P2Y6R) | inhibition at 10 µM (NPP1 [5]; ATP (100 μM) as a substrate) | other results
1 | Nc1ncnc2c1ncn2[C@@H]1O[C@H](COP(=O)(O)CP(=O)(O)O)[C@@H](O)[C@H]1O [AOPCP, reference compound] | – | – | – | – | – | – | – | – | % inhibition ± SD at 10 μM, Human NPP3 (human NPP3; [7]): inactived; Ki (Human CD73): 0.197 µM; % inhibition ± SD at 10 μM, Human CD39 (NTPDase1) (Human CD39 (NTPDase1) [1]; [7]): 12 ± 5%; Ki (Human CD39 (NTPDase1) [1]; read-out: Ki ± SD (μM), Human CD39 (NTPDase1)): > 10 µM; Ki (NPP1 [2]): 1.28 to 16.5 µM
2 | Nc1ncnc2c1ncn2COCCOP(=S)(S)OP(=O)(O)O (centres unmarked) [Analogue 106] | slightly increase cell survival | – | – | – | – | – | – | – | –
3 | Nc1ncnc2c1ncn2COCCOP(=S)(S)OP(=O)(O)OP(=O)(O)O (centres unmarked) [Analogue 107] | slightly increase cell survival | – | – | – | – | – | – | – | inhibition type (Lineweaver-Burk plot) (NPP1 [4]; vs p-Nph-5′-TMP, […]): non-competitive inhibition; inhibition type (Lineweaver-Burk plot) (NPP1 [5]; vs ATP, α value of ~1): non-competitive inhibition
4 | Nc1ncnc2c1ncn2COCCOP(=S)(S)OP(=O)(O)C(Cl)(Cl)P(=O)(O)O (centres unmarked) [Analogue 109] | slightly increase cell survival | – | – | – | – | – | – | – | –
5 | Cc1ccc(C(=O)Nc2ccc(S(=O)(=O)O)c3cc(S(=O)(=O)O)cc(S(=O)(=O)O)c23)cc1NC(=O)c1cccc(NC(=O)Nc2cccc(C(=O)Nc3cc(C(=O)Nc4ccc(S(=O)(=O)O)c5cc(S(=O)(=O)O)cc(S(=O)(=O)O)c45)ccc3C)c2)c1 [Suramin] | – | – | – | – | – | – | – | – | Ki (Human CD39 (NTPDase1) [6]): 300 µM
6 | Nc1ncnc2c1ncn2COCCOP(=S)(S)OP(=O)(O)OP(=O)(O)O (centres unmarked) [compound 107] | – | −2 ± 2% | 39 ± 13% | −1 ± 1% | 1980 nM | 74 ± 1% | −5 ± 3% | 66 ± 1% | % inhibition ± SEM, human NPP3 (human NPP3; n = 3): 17 ± 1%; % inhibition ± SEM, human CD39 (human CD39): 28 ± 1%; Ki (NPP1 [5]; ATP (100 μM) as a substrate, read-out: Ki (μM ± SD), human NPP1 (converted)): 0.334 µM
7 | Nc1ncnc2c1ncn2COCCOP(=S)(S)OP(=O)(O)CP(=O)(O)O (centres unmarked) [compound 108] | – | −2 ± 1% | 44 ± 9% | 0 ± 1% | 2160 nM | 65 ± 1% | −8 ± 2% | 16 ± 3% | –
8 | Nc1ncnc2c1ncn2COCCOP(=S)(S)OP(=O)(O)C(Cl)(Cl)P(=O)(O)O (centres unmarked) [compound 109] | – | 0 ± 2% | 21 ± 5% | −2 ± 1% | 698 nM | 85 ± 2% | 2 ± 4% | 37 ± 1% | –
